According to ChEMBL document CHEMBL4422624, “A novel class of anthraquinone-based HDAC6 inhibitors” (Eur J Med Chem, 2019):
The source made the active and inactive calls. The calls are words filed in the database; no cut-off is given here.

Experiments:
Histone deacetylase 9 = Histone deacetylase 9 (Homo sapiens, UniProt Q9UKV0); experiment: Inhibition of human recombinant HDAC9 using fluorogenic HDAC substrate class 2A by fluorescence assay
Histone deacetylase 5 = Histone deacetylase 5 (Homo sapiens, UniProt Q9UQL6); experiment: Inhibition of human recombinant HDAC5 using fluorogenic HDAC substrate class 2A by fluorescence assay
Histone deacetylase 5, sequence (Q9UQL6 whole entry): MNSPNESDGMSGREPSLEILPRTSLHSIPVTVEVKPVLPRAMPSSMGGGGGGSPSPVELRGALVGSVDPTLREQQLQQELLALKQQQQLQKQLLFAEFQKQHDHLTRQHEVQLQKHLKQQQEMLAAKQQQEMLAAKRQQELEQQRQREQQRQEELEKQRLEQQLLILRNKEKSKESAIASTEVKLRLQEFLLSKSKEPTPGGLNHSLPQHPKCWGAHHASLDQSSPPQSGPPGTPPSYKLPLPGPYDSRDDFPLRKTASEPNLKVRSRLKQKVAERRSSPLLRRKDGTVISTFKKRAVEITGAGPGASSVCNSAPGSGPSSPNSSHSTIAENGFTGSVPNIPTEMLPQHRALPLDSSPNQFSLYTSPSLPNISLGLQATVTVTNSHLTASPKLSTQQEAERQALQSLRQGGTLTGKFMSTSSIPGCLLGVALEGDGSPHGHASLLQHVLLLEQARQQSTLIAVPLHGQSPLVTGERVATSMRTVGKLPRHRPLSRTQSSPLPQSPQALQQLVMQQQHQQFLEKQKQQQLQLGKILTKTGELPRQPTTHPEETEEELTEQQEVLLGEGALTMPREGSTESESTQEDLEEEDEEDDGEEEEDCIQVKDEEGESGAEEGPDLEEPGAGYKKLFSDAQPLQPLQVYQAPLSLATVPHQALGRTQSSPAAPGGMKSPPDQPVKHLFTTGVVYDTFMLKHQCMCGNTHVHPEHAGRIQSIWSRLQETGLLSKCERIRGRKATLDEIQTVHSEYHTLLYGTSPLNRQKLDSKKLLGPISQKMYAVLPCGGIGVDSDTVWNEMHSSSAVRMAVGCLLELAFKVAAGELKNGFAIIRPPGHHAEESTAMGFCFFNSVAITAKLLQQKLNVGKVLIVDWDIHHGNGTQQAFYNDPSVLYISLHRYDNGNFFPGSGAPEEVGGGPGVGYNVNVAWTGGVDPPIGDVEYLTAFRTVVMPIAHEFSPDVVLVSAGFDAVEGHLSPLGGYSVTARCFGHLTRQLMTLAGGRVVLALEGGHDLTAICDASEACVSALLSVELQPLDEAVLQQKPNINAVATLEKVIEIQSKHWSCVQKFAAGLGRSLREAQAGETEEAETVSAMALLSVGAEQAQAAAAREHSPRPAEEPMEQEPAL

[1] = target: T1, Polyamine deacetylase HDAC10 (Homo sapiens, UniProt Q969S8); experiment: Inhibition of HDAC10 (unknown origin) by fluorescence assay
T1 sequence (Q969S8 whole entry): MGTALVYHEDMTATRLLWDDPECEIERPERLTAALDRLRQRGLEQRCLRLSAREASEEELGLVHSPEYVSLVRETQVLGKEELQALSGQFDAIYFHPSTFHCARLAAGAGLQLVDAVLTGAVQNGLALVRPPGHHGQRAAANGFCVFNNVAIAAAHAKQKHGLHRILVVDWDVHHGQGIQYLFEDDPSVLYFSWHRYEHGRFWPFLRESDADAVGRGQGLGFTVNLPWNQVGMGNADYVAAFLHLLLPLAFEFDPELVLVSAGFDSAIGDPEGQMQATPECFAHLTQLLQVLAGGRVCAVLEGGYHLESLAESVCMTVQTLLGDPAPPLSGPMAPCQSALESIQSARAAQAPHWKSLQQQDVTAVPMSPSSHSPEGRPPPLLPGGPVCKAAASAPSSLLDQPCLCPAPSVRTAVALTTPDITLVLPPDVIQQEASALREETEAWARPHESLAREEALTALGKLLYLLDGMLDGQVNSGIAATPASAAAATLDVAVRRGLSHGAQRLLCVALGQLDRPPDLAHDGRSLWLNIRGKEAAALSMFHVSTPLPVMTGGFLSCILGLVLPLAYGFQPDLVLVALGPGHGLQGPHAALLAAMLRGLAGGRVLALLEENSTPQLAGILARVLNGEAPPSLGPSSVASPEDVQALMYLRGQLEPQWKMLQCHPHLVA

Histone deacetylase 2 = Histone deacetylase 2 (Homo sapiens, UniProt Q92769); experiment: Inhibition of HDAC2 (unknown origin) using fluorogenic HDAC substrate-3 by fluorescence assay
Histone deacetylase 2, sequence (Q92769 whole entry): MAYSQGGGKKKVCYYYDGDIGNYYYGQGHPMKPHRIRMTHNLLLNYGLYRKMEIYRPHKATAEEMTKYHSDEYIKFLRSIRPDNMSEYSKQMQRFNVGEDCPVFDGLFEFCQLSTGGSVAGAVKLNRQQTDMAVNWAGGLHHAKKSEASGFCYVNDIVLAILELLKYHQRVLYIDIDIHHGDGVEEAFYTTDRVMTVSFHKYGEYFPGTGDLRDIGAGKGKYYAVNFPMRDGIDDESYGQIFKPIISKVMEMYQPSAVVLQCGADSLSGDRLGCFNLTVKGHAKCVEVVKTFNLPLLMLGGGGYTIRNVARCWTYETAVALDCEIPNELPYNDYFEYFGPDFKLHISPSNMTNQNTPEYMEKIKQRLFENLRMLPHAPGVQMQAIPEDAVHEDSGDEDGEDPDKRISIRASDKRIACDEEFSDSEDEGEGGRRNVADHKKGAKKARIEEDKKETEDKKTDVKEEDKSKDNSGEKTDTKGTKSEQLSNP

Histone deacetylase 4 = Histone deacetylase 4 (Homo sapiens, UniProt P56524); experiment: Inhibition of human recombinant HDAC4 using fluorogenic HDAC substrate class 2A by fluorescence assay
Histone deacetylase 4, sequence (P56524 whole entry): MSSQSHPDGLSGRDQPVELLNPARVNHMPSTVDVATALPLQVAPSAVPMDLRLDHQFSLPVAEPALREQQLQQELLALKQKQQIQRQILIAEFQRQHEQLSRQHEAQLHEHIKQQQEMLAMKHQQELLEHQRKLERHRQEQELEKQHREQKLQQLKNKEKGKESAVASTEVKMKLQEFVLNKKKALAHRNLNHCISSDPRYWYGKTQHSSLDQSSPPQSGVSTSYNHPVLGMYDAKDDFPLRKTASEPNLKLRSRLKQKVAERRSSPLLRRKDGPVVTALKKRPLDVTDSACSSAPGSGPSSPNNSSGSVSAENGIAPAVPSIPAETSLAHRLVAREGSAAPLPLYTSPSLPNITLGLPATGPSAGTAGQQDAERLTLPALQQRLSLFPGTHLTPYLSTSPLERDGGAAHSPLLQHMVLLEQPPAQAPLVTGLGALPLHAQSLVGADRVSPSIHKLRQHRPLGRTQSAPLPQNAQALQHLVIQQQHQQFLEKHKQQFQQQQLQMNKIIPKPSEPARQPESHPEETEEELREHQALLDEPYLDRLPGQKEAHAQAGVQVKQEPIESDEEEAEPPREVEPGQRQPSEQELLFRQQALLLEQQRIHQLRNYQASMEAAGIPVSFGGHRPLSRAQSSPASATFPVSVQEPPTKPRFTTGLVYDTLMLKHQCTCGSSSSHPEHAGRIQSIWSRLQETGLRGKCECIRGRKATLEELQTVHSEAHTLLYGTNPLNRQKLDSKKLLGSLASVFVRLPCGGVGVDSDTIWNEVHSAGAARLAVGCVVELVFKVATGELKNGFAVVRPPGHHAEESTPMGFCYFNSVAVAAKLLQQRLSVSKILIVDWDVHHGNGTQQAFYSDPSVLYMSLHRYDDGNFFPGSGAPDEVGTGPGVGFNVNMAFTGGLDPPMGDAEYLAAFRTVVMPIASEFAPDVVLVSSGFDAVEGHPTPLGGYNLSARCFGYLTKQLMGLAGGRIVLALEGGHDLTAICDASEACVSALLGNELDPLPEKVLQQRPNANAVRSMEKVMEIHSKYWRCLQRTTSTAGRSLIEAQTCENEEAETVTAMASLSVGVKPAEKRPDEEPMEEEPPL

[2] = target: T2, Protein deacetylase HDAC6 (Homo sapiens, UniProt Q9UBN7); experiment: Inhibition of human recombinant HDAC6 using fluorogenic HDAC substrate-3 by fluorescence assay
T2 sequence (Q9UBN7 whole entry): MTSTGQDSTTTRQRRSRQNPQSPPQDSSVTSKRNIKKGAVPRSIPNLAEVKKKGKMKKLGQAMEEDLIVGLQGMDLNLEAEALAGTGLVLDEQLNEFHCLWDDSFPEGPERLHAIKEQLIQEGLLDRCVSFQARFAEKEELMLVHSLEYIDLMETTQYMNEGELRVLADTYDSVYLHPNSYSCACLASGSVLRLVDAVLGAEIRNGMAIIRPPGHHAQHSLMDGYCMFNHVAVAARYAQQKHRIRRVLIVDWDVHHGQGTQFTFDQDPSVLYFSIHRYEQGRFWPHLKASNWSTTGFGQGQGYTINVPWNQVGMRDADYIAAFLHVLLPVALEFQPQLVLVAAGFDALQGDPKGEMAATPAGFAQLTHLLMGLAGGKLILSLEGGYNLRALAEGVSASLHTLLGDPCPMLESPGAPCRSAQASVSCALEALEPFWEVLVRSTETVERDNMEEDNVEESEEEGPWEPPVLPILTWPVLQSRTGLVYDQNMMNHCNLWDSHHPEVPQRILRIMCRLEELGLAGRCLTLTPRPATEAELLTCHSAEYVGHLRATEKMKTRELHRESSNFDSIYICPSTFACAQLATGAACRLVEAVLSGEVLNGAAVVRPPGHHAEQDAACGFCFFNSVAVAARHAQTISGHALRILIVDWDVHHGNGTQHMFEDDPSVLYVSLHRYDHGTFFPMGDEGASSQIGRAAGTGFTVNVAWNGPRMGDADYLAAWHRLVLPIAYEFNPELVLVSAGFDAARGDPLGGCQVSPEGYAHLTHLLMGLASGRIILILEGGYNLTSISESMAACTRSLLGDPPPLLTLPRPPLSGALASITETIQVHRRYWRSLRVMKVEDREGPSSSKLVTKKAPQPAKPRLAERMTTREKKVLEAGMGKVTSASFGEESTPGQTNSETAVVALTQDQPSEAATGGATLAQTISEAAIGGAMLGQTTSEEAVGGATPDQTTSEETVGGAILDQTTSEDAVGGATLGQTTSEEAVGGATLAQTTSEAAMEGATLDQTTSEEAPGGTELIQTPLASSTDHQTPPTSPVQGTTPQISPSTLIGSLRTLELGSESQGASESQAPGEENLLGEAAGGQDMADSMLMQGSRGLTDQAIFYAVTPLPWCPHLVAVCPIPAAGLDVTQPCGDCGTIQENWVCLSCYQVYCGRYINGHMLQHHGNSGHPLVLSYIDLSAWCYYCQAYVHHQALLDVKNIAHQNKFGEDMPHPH

Histone deacetylase 11 = target: T3, Histone deacetylase 11 (Homo sapiens, UniProt Q96DB2); experiment: Inhibition of human recombinant HDAC11 using fluorogenic HDAC substrate class 2A by fluorescence assay
T3 sequence (Q96DB2 whole entry): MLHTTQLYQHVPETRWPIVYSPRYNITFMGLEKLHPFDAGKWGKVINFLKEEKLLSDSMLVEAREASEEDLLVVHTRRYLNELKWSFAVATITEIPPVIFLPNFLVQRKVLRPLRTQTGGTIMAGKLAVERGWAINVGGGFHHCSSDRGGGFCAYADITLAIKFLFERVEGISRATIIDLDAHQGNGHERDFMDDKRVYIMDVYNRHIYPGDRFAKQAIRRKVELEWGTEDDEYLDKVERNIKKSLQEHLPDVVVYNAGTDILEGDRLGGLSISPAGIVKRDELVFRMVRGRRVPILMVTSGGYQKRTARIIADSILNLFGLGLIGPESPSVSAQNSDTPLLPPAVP

SH-SY5Y = experiment: Cytotoxicity against human SH-SY5Y cells assessed as reduction in cell viability after 3 days by MTS assay; format: functional; conditions: for GI50: 72 h
Histone deacetylase 7 = target: T4, Histone deacetylase 7 (Homo sapiens, UniProt Q8WUI4); experiment: Inhibition of human recombinant HDAC7 using fluorogenic HDAC substrate class 2A by fluorescence assay
T4 sequence (Q8WUI4 whole entry): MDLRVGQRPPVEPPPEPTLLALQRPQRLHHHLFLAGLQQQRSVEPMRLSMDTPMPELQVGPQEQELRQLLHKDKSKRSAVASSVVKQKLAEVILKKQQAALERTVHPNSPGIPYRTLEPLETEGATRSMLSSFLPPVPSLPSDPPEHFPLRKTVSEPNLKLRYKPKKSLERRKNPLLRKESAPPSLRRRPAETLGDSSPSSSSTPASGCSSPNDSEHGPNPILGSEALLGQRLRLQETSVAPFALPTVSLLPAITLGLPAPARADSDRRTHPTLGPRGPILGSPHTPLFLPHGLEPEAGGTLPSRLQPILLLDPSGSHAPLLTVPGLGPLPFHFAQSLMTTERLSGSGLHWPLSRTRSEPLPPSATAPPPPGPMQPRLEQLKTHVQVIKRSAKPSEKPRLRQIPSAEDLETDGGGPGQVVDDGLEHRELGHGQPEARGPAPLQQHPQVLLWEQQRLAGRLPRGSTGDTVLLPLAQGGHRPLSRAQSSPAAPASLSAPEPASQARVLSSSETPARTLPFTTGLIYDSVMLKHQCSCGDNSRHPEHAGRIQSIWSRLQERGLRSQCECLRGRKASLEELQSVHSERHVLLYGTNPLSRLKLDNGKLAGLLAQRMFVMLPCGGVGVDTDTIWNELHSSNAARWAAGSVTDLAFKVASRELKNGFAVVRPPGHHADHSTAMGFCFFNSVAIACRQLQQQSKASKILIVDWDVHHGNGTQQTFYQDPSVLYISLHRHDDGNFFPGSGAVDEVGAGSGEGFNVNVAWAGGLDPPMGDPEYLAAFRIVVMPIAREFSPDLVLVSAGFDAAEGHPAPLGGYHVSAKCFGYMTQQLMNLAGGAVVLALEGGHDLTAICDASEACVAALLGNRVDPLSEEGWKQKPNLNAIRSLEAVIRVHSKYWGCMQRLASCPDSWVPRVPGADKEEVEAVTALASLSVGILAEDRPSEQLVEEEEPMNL

Histone deacetylase 3 = Histone deacetylase 3 (Homo sapiens, UniProt O15379); experiment: Inhibition of human recombinant HDAC3 using fluorogenic HDAC substrate-3 by fluorescence assay
Histone deacetylase 3, sequence (O15379 whole entry): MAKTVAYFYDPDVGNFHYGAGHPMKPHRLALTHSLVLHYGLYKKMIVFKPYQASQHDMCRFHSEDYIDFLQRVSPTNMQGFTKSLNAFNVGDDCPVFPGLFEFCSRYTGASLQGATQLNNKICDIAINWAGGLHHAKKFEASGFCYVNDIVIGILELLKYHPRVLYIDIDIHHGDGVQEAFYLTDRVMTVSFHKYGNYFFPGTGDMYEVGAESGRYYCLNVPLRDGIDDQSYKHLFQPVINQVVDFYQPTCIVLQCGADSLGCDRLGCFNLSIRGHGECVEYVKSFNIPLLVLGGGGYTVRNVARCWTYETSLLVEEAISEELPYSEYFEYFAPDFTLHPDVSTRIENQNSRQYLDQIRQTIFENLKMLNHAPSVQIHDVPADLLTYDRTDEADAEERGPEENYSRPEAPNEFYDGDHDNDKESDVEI

Histone deacetylase 8 = target: T5, Histone deacetylase 8 (Homo sapiens, UniProt Q9BY41); experiment: Inhibition of human recombinant HDAC8 using fluorogenic HDAC substrate class 2A by fluorescence assay
T5 sequence (Q9BY41 whole entry): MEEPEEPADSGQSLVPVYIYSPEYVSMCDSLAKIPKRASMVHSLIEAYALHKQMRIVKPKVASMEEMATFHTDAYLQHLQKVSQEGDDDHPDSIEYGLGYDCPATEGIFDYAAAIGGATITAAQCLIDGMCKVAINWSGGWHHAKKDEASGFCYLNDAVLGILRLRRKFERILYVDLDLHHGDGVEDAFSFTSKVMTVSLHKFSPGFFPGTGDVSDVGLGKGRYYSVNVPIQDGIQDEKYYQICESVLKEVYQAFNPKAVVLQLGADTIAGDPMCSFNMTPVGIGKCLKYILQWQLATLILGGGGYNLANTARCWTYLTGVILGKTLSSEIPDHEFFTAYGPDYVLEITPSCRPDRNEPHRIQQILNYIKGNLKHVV

Histone deacetylase 1 [3] = target: T6, Histone deacetylase 1 (Homo sapiens, UniProt Q13547); experiment: Inhibition of human recombinant HDAC1 using fluorogenic HDAC substrate-3 by fluorescence assay
T6 sequence (Q13547 whole entry): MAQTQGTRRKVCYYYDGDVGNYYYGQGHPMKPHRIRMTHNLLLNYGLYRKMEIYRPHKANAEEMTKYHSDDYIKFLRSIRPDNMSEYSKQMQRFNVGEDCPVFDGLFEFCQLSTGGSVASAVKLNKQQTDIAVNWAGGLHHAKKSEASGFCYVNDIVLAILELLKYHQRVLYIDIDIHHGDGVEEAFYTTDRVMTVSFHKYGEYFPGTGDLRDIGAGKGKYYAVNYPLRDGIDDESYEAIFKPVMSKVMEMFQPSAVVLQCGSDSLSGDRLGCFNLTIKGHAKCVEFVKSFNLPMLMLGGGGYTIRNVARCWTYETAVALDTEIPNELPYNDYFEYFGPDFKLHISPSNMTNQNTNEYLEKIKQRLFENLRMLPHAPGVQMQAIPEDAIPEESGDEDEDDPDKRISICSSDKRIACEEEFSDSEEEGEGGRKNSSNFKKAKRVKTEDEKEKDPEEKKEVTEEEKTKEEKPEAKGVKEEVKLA

[4] = target: T7, Protein deacetylase HDAC6 (Homo sapiens) (UniProt Q9UBN7); experiment: Inhibition of HDAC6 in human SH-SY5Y cells assessed as increase in alpha-tubulin acetylation at 0.5 uM after 24 hrs by Western blot analysis; format: cell-based
T7 sequence (whole entry): T2 sequence (Q9UBN7 whole entry)

[5] = target: T7, Protein deacetylase HDAC6 (Homo sapiens); experiment: Inhibition of HDAC6 in human SH-SY5Y cells assessed as increase in alpha-tubulin acetylation after 24 hrs by Western blot analysis; format: cell-based
Histone deacetylase 1 [6] = target: T6, Histone deacetylase 1; experiment: Inhibition of HDAC1 in human SH-SY5Y cells assessed as increase in histone H3 acetylation up to 20 uM after 24 hrs by Western blot analysis; format: cell-based
[7] = target: T7, Protein deacetylase HDAC6 (Homo sapiens); experiment: Inhibition of HDAC6 in human H1975 cells assessed as microtubule polymerization up to 10 uM after 24 hrs by Hoechst staining-based fluorescence microscopic analysis; format: cell-based
[8] = target: T7, Protein deacetylase HDAC6 (Homo sapiens); experiment: Inhibition of HDAC6 in human H1975 cells assessed as alpha-tubulin acetylation up to 10 uM after 24 hrs by Hoechst staining-based fluorescence microscopic analysis; format: cell-based

Histone deacetylase 9, sequence (Q9UKV0 whole entry): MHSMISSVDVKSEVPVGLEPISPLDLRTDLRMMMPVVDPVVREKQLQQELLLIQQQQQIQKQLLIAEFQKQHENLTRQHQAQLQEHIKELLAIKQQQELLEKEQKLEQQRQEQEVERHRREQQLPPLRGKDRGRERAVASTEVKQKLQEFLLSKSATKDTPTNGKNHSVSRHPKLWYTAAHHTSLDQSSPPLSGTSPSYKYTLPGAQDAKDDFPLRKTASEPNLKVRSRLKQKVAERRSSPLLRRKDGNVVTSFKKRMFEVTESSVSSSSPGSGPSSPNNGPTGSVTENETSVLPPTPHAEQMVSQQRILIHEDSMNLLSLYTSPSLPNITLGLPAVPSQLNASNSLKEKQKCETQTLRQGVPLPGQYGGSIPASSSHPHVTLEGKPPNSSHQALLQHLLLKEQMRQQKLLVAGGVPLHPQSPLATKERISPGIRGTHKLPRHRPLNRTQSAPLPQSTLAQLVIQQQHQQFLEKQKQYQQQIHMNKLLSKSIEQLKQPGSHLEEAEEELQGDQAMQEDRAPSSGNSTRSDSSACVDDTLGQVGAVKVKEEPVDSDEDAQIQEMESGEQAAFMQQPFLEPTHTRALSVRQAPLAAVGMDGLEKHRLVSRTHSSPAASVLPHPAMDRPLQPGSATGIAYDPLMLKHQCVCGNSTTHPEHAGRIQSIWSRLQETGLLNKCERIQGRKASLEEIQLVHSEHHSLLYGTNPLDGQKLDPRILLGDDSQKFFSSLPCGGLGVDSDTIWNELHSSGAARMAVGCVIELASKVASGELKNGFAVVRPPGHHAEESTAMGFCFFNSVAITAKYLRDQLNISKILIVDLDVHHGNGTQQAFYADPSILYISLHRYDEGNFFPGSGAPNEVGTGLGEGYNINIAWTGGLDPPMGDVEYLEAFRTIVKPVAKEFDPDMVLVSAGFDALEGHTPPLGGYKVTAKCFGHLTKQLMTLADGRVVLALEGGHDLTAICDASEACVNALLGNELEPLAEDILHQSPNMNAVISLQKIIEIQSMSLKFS

Row | IC50 (Histone deacetylase 9) | IC50 (Histone deacetylase 5) | IC50 [1] | IC50 (Histone deacetylase 2) | IC50 (Histone deacetylase 4) | IC50 [2] | IC50 (Histone deacetylase 11) | IC50 (Histone deacetylase 7) | IC50 (Histone deacetylase 3) | IC50 (Histone deacetylase 8) | IC50 (Histone deacetylase 1 [3]) | inhibition [4] | inhibition [5] | inhibition (Histone deacetylase 1 [6]) | inhibition [7] | inhibition [8] | SMILES | Activity (SH-SY5Y) | GI50 (SH-SY5Y)
1 | > 100 µM | 8.59 µM | 1.47 µM | 13.6 µM | 16.2 µM | 0.536 µM | > 100 µM | > 100 µM | 1.97 µM | > 100 µM | 3.07 µM | – | – | – | – | – | O=C(/C=C/c1ccc2c(c1)C(=O)c1ccccc1C2=O)NO | Dose-dependent effect | 22.3 µM
2 | 7.78 µM | 1.36 µM | 5 µM | 4.62 µM | 5.61 µM | 0.056 µM | 80 µM | – | 3.95 µM | 0.599 µM | 0.91 µM | Active | Dose-dependent effect | inactive | Active | Active | O=C(NO)c1ccc2c(c1)C(=O)c1ccccc1C2=O | Dose-dependent effect | 15.8 µM
